The text below walks through data of US10874675B2, “Pteridine dione monocarboxylate transporter inhibitors” (The Scripps Research Institute, priority 2015, dated 2020).

For this experiment, the system named is Raji (Burkitt's) lymphoma cells. Description: MTT assay for 4-day viability of Raji (Burkitt's) lymphoma cells. The conditions noted are these: Homo sapiens, 96 h, Raji cells (highly express MCT1), estimated values, read-out: approximate potency (EC50 nM). It counts as cell-based. An excerpt:
Specific Examples of compounds of the invention, with estimated EC50 values determined using an MTT assay for 4-day viability of Raji (Burkitt's) lymphoma cells, a cell line known to highly express MCT1 and to be sensitive to small molecule MCT inhibitors,^4 are shown in Table 3. Assay protocols follow those described in the literature.^4 Other assays that are not described here but that are standard in the field, such as an assay for competitive inhibition of transport of radiolabeled lactic acid, an MCT substrate, may also be useful in establishing mechanism of action of these compounds.

`CC(C)Cn1c(=O)n(C)c(=O)c2nc(CCCCCO)c(COc3cccc4ccccc34)nc21` [Example 2, 6-(5-hydroxypentyl)-1-isobutyl-3-methyl-7-((naphthalen-1-yloxy)methyl)pteridine-2,4(1H,3H)-dione]: the EC50 is less than 50 nM.
Consider `CC(C)Cn1c(=O)n(C)c(=O)c2nc(CCCCCO)c(COc3cncc4ccccc34)nc21` [Example 5], for which the EC50 was less than 50 nM.
For `CC(C)Cn1c(=O)n(C)c(=O)c2nc(CCCCCO)c(COc3cccc4[nH]ccc34)nc21` [Example 6, 7-(((1H-indol-4-yl)oxy)methyl)-6-(5-hydroxypentyl)-1-isobutyl-3-methylpteridine-2,4(1H,3H)-dione], the EC50 was less than 50 nM.
As for `CC(C)Cn1c(=O)n(C)c(=O)c2nc(CCCCCO)c(COc3ccccc3C(F)(F)F)nc21` [Example 7, 6-(5-hydroxypentyl)-1-isobutyl-3-methyl-7-((2-(trifluoromethyl)phenoxy)methyl)pteridine-2,4(1H,3H)-dione], the figure is less than 50 nM.
For `CC(C)Cn1c(=O)n(C)c(=O)c2nc(CCCCCO)c(COc3ccc([N+](=O)[O-])c4ccccc34)nc21` [Example 8, 6-(5-hydroxypentyl)-1-isobutyl-3-methyl-7-(((4-nitronaphthalen-1-yl)oxy)methyl)pteridine-2,4(1H,3H)-dione], the 50% effective concentration (EC50) is 300 nM.
On to `CC(C)Cn1c(=O)n(C)c(=O)c2nc(CCCCCO)c(COc3ccc(N)c4ccccc34)nc21` [Example 9, 7-(((4-aminonaphthalen-1-yl)oxy)methyl)-6-(5-hydroxypentyl)-1-isobutyl-3-methylpteridine-2,4(1H,3H)-dione], for which the EC50 was less than 50 nM.
As for `CC(C)Cn1c(=O)n(C)c(=O)c2nc(CCCCCO)c(COc3ccc4ccccc4c3)nc21` [Example 10], the EC50 was less than 50 nM.
Take `CC(C)Cn1c(=O)n(C)c(=O)c2nc(CCCCCO)c(COc3ccccc3Br)nc21` [Example 11, 7-((2-bromophenoxy)methyl)-6-(5-hydroxypentyl)-1-isobutyl-3-methylpteridine-2,4(1H,3H)-dione]: the EC50 is less than 50 nM.
For `CC(C)Cn1c(=O)n(C)c(=O)c2nc(CCCCCO)c(COc3ccnc4ccccc34)nc21` [Example 12, 6-(5-hydroxypentyl)-1-isobutyl-3-methyl-7-((quinolin-4-yloxy)methyl)pteridine-2,4(1H,3H)-dione], the EC50 was less than 50 nM.
In the case of `CC(C)Cn1c(=O)n(C)c(=O)c2nc(CCCCCO)c(COc3ccccc3Cl)nc21` [Example 13, 7-((2-chlorophenoxy)methyl)-6-(5-hydroxypentyl)-1-isobutyl-3-methylpteridine-2,4(1H,3H)-dione], the EC50 was less than 50 nM.
Regarding `CC(C)Cn1c(=O)n(C)c(=O)c2nc(CCCCCO)c(COc3ccc(-c4ccccc4)cc3)nc21` [Example 14, 7-(([1,1′-biphenyl]-4-yloxy)methyl)-6-(5-hydroxypentyl)-1-isobutyl-3-methylpteridine-2,4(1H,3H)-dione], the concentration giving a half-maximal response (EC50) was not above 100 nM.
As to `CC(C)Cn1c(=O)n(C)c(=O)c2nc(CCCCCO)c(COc3ccccc3)nc21` [Example 15, 6-(5-hydroxypentyl)-1-isobutyl-3-methyl-7-(phenoxymethyl)pteridine-2,4(1H,3H)-dione], the EC50 is not above 100 nM.
With `CC(C)Cn1c(=O)n(C)c(=O)c2nc(CCCCCO)c(COc3cccc(C(F)(F)F)c3)nc21` [Example 16, 6-(5-hydroxypentyl)-1-isobutyl-3-methyl-7-((3-(trifluoromethyl)phenoxy)methyl)pteridine-2,4(1H,3H)-dione], the EC50 was not above 100 nM.
As for `CC(C)Cn1c(=O)n(C)c(=O)c2nc(CCCCCO)c(COc3ccccc3F)nc21` [Example 17, 7-((2-fluorophenoxy)methyl)-6-(5-hydroxypentyl)-1-isobutyl-3-methylpteridine-2,4(1H,3H)-dione], the figure is not above 100 nM; as for `CC(C)Cn1c(=O)n(C)c(=O)c2nc(CCCCCO)c(COc3ccc4ncccc4c3)nc21` [Example 18, 6-(5-hydroxypentyl)-1-isobutyl-3-methyl-7-((quinolin-6-yloxy)methyl)pteridine-2,4(1H,3H)-dione], not above 100 nM.
With `CC(C)Cn1c(=O)n(C)c(=O)c2nc(CCCCCO)c(COc3ccc(Br)cc3Br)nc21` [Example 19, 7-((2,4-dibromophenoxy)methyl)-6-(5-hydroxypentyl)-1-isobutyl-3-methylpteridine-2,4(1H,3H)-dione], the EC50 was not above 250 nM.
Consider `CC(C)Cn1c(=O)n(C)c(=O)c2nc(CCCCCO)c(COc3ccc4cccnc4c3)nc21` [Example 20, 6-(5-hydroxypentyl)-1-isobutyl-3-methyl-7-((quinolin-7-yloxy)methyl)pteridine-2,4(1H,3H)-dione], for which the EC50 was not above 250 nM.
`CC(C)Cn1c(=O)n(C)c(=O)c2nc(CCCCCO)c(COc3ccc(Cl)cc3Br)nc21` [Example 21, 7-((2-bromo-4-chlorophenoxy)methyl)-6-(5-hydroxypentyl)-1-isobutyl-3-methylpteridine-2,4(1H,3H)-dione]: the EC50 is not above 250 nM.
For the molecule `CC(C)Cn1c(=O)n(C)c(=O)c2nc(CCCCCO)c(COc3ccc(C(F)(F)F)cc3)nc21` [Example 22, 6-(5-hydroxypentyl)-1-isobutyl-3-methyl-7-((4-(trifluoromethyl)phenoxy)methyl)pteridine-2,4(1H,3H)-dione], the EC50 was not above 250 nM.
For `CC(C)Cn1c(=O)n(C)c(=O)c2nc(CCCCCO)c(COc3ccccc3-c3ccccc3)nc21` [Example 23, 7-(([1,1′-biphenyl]-2-yloxy)methyl)-6-(5-hydroxypentyl)-1-isobutyl-3-methylpteridine-2,4(1H,3H)-dione], the EC50 was not above 250 nM.
As for `CC(C)Cn1c(=O)n(C)c(=O)c2nc(CCCCCO)c(COc3cc(F)ccc3Br)nc21` [Example 24, 7-((2-bromo-5-fluorophenoxy)methyl)-6-(5-hydroxypentyl)-1-isobutyl-3-methylpteridine-2,4(1H,3H)-dione], the figure is not above 250 nM; as for `CC(C)Cn1c(=O)n(C)c(=O)c2nc(CCCCCO)c(COc3cccc4ccncc34)nc21` [Example 25, 6-(5-hydroxypentyl)-1-isobutyl-7-((isoquinolin-8-yloxy)methyl)-3-methylpteridine-2,4(1H,3H)-dione], not above 250 nM.
For the molecule `CC(C)Cn1c(=O)n(C)c(=O)c2nc(CCCCCO)c(COc3cccc4cccnc34)nc21` [Example 26, 6-(5-hydroxypentyl)-1-isobutyl-3-methyl-7-((quinolin-8-yloxy)methyl)pteridine-2,4(1H,3H)-dione], the EC50 was not above 500 nM.
As for `CC(C)Cn1c(=O)n(C)c(=O)c2nc(CCCCCO)c(COc3cc4ccccc4cn3)nc21` [Example 27, 6-(5-hydroxypentyl)-1-isobutyl-7-((isoquinolin-3-yloxy)methyl)-3-methylpteridine-2,4(1H,3H)-dione], the figure is not above 500 nM; as for `CC(C)Cn1c(=O)n(C)c(=O)c2nc(CCCCCO)c(COc3ccncc3)nc21` [Example 28, 6-(5-hydroxypentyl)-1-isobutyl-3-methyl-7-((pyridin-4-yloxy)methyl)pteridine-2,4(1H,3H)-dione], not above 1000 nM; as for `CC(C)Cn1c(=O)n(C)c(=O)c2nc(CCCCCO)c(COc3c(Br)cc(Br)c4cnccc34)nc21` [Example 29, 7-(((6,8-dibromoisoquinolin-5-yl)oxy)methyl)-6-(5-hydroxypentyl)-1-isobutyl-3-methylpteridine-2,4(1H,3H)-dione], not above 1000 nM.
As for `CC(C)Cn1c(=O)n(C)c(=O)c2nc(CCCCCO)c(COc3cccc4nccnc34)nc21` [Example 30, 6-(5-hydroxypentyl)-1-isobutyl-3-methyl-7-((quinoxalin-5-yloxy)methyl)pteridine-2,4(1H,3H)-dione], the figure is not above 1000 nM; as for `CC(C)Cn1c(=O)n(C)c(=O)c2nc(CCCCCO)c(COc3cccnc3)nc21` [Example 31, 6-(5-hydroxypentyl)-1-isobutyl-3-methyl-7-((pyridin-3-yloxy)methyl)pteridine-2,4(1H,3H)-dione], not above 1000 nM.
In the case of `CC(C)Cn1c(=O)n(C)c(=O)c2nc(CCCCCO)c(COc3cccc([N+](=O)[O-])c3)nc21` [Example 32, 6-(5-hydroxypentyl)-1-isobutyl-3-methyl-7-((3-nitrophenoxy)methyl)pteridine-2,4(1H,3H)-dione], the EC50 is not above 1000 nM.
In the case of `CC(C)Cn1c(=O)n(C)c(=O)c2nc(CCCCCO)c(COc3cccc(N)c3)nc21` [Example 33, 7-((3-aminophenoxy)methyl)-6-(5-hydroxypentyl)-1-isobutyl-3-methylpteridine-2,4(1H,3H)-dione], the EC50 is not above 100 nM.
For `CC(C)Cn1c(=O)n(C)c(=O)c2nc(CCCCCO)c(COc3ccccc3C#N)nc21` [Example 34, 2-((6-(5-hydroxypentyl)-1-isobutyl-3-methyl-2,4-dioxo-1,2,3,4-tetrahydropteridin-7-yl)methoxy)benzonitrile], the EC50 was not below 2000 nM.
Turning to `CC(C)Cn1c(=O)n(C)c(=O)c2nc(CCc3ccccc3CO)c(COc3cccc4ccccc34)nc21` [Example 35, 6-(2-(hydroxymethyl)phenethyl)-1-isobutyl-3-methyl-7-((naphthalen-1-yloxy)methyl)pteridine-2,4(1H,3H)-dione], the EC50 is not above 100 nM.

The EC50 is the concentration at which the effect is half-maximal.
